According to US6348477B1, “Anti-herpesvirus compounds and methods for identifying, making and using same” (Boehringer Ingelheim(Canada) Ltd., priority 1995, dated 2002):

Assays:
HSV-1 helicase-primase = target: T1, HSV-1 helicase-primase (Human herpesvirus 1, UniProt P10189+P10236); experiment: HSV-1 DNA-dependent ATPase assay (inhibition of HSV-1 helicase-primase); type: biochemical; conditions: Group 1 Table 1
T1 construct: made in house; host or cells: Sf21 insect cells triply infected with recombinant baculoviruses
T1 sequence (P10189 whole entry): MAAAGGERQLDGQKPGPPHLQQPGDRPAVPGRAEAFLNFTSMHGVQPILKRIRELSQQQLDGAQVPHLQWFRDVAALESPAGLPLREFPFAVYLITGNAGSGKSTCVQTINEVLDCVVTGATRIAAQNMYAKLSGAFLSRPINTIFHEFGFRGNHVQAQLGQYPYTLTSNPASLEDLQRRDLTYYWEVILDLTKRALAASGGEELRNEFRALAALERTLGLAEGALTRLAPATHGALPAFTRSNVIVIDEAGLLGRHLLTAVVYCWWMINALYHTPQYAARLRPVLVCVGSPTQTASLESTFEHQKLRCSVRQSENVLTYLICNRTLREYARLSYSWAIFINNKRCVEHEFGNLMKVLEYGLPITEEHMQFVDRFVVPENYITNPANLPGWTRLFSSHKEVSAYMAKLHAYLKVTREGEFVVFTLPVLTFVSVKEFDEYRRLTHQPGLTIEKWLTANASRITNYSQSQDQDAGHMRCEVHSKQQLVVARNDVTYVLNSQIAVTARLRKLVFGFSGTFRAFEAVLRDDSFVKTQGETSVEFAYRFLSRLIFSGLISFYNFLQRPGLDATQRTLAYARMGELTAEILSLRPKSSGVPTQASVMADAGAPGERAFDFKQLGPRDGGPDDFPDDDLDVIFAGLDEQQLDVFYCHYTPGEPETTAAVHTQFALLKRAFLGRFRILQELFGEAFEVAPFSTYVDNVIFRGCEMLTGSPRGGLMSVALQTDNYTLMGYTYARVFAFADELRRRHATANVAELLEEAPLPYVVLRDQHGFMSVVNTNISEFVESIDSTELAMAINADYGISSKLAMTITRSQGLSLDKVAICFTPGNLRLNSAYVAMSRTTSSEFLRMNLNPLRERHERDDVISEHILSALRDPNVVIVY
T1 sequence (P10192 whole entry, further chain): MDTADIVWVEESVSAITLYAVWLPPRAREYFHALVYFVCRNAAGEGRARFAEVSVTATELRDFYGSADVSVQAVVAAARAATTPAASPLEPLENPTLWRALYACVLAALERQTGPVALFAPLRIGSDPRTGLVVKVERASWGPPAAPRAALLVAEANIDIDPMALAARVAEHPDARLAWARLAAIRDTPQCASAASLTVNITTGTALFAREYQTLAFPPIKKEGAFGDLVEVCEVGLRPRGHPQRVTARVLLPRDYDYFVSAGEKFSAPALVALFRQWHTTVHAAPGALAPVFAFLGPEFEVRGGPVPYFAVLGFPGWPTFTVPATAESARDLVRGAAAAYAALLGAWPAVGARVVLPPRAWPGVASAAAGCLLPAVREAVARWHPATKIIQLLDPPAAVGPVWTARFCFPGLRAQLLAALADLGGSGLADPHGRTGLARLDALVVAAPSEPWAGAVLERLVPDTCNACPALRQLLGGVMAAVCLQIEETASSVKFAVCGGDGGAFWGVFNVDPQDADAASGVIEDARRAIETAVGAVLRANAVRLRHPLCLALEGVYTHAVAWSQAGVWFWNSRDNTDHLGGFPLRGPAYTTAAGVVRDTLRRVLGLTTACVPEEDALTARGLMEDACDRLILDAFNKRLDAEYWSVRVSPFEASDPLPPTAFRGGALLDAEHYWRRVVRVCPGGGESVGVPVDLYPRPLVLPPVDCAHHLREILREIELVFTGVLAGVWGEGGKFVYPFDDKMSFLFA
T1 sequence (P10236 whole entry): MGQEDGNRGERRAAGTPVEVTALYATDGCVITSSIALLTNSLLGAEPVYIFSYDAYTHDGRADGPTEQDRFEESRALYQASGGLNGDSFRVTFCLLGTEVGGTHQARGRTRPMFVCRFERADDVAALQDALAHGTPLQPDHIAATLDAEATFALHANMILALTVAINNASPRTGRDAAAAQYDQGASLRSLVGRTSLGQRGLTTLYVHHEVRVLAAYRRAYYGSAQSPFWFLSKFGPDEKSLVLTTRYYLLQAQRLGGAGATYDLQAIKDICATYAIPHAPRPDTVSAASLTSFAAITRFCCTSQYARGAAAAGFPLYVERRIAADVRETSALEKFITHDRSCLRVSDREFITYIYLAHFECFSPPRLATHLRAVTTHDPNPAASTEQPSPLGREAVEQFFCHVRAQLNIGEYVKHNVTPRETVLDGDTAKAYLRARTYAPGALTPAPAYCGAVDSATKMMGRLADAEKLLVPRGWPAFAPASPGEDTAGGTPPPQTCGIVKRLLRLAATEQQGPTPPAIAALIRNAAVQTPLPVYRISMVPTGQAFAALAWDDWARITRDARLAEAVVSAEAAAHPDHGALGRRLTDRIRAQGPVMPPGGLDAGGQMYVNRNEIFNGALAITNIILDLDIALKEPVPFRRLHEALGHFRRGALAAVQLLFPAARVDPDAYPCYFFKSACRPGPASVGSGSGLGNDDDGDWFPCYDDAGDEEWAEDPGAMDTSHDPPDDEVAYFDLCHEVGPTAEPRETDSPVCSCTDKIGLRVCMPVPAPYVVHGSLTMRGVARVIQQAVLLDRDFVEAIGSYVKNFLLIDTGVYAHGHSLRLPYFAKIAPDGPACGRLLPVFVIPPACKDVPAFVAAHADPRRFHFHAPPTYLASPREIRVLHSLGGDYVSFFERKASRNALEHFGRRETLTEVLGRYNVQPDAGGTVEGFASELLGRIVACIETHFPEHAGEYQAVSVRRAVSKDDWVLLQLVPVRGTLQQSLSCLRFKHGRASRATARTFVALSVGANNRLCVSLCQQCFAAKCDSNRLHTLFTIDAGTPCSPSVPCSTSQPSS
How it was run: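 HSV-1 helicase-primase holoenzyme (UL5/UL8/UL52, expressed in baculovirus-infected Sf21 cells, purified; 3 μg/mL) with 4 mM ATP and 25 μM primed single-stranded M13 DNA in HEPES pH 7.5, 5.5 mM MgCl2, 3.3% DMSO, 20 min at 34°. Released phosphate is read with malachite green at 650 nm, and activity is taken from the net absorbance change.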

HSV-1 strain F or KOS = experiment: Inhibition of herpes simplex virus (HSV-1) replication in cell culture (BHK-21 cells, glycoprotein C ELISA); type: cell-based; conditions: Human alphaherpesvirus 1, BHK-21; Group 1 Table 1
Protocol: B) Inhibition of Herpes Simplex Virus (HSV-1) Replication in Cell Culture
Assay: BHK-21 cells clone 13 (ATCC CCL10) were incubated for two days in 850 cm^2 roller bottles (2×10^7 cells/bottle) with α-MEM medium (Gibco Canada Inc., Burlington, Ontario, Canada) supplemented with 8% (v/v) fetal bovine serum (FBS, Gibco Canada, Inc.). The cells were trypsinized and then 3,000 cells in 100 μL of fresh medium were transferred into each well of a 96-well microtiter plate. The cells were incubated at 37° for a period of 3 days to reach a density of 50,000 cells per well. The cells were washed twice with 100 μL of α-MEM supplemented with 2% heat inactivated FBS and incubated for 1-2 hours in 100 μL of the same medium.
Thereafter, the cells were infected with HSV-1 strain F or KOS (multiplicity of infection=0.05 PFU/cell) in 50 μL of α-MEM supplemented with 2% heat inactivated FBS. Following one hour of virus absorption at 37°, the medium was removed and the cells were washed with α-MEM supplemented with 2% heat inactivated FBS (2×100 μL). The cells were incubated with or without 100 μL of the appropriate concentration of test reagent in α-MEM medium supplemented with 2% heat inactivated FBS. After 24 hours of incubation at 37°, the extent of viral replication was determined by an ELISA assay; for instance, the following assay that detects the late glycoprotein C of HSV-1.
Cells were fixed in the microtiter plate with 100 μL of 0.063% glutaraldehyde in phosphate buffered saline for 30 min at room temperature. The microtiter plate was then washed once with casein blocking solution and blocked with 200 μL of the same solution for one hour at room temperature. Thereafter, 100 μL of mAb C11 recognizing the glycoprotein C of HSV-1 (see E. Trybala et al., Journal of General Virology, 1994, 75, 743) was added to each well for two hours at room temperature. The plate was washed three times with phosphate buffered saline containing 0.05% polyoxyethylene (20) sorbitan monooleate. The cells were incubated with 100 μL of sheep anti-mouse IgG horseradish peroxidase for one hour at room temperature in the dark.
The plate was washed three times with 200 μL of the above-noted phosphate buffer saline preparation, and then once with 0.1 M sodium citrate (pH 4.5). Thereafter, 100 μL of orthophenylenediamine dihydrochloride (OPD, Gibco, Canada Inc.) was added to each well. The plate was agitated on a microplate shaker for 30 min in the dark. Color development was monitored at 450 nm using a microplate spectrophotometer.
SAS was used to calculate % inhibition of viral replication and to generate EC50 values.

HCMV (strain AD169) = experiment: Inhibition of HCMV replication, plaque reduction assay (PRA, Hs-68 cells); type: cell-based, human cytomegalovirus; conditions: Human betaherpesvirus 5, AD169, Hs68; Group 1 Table 1; read-out: PRA CMV EC50
How it was run: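 Hs-68 cells infected with about 50 PFU HCMV AD169 (2 h adsorption, 37°), then incubated with compound in 5% inactivated-FBS medium for 4 days, refed with fresh compound, 4 more days. Crystal violet-stained plaques counted; EC50 from percent plaque reduction versus untreated.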

IC50 (HSV-1 helicase-primase): 0.35 µM | EC50 (HSV-1 strain F or KOS): 0.21 µM | EC50 (HCMV (strain AD169)): 93 µM
SMILES: Nc1nc(-c2ccc(NC(=O)CN(CCc3ccccc3)C(=O)c3cccnc3)cc2)cs1 [Example 67]
